Reference: patent US7135465B2, “Sustained release beadlets containing stavudine” (Bristol-Myers Squibb Company, priority 2000, dated 2006)

Assay: Gamma scintigraphy studies of stavudine absorption
Assay type: in vivo
Method: It has been found in gamma scintigraphy studies that stavudine is well absorbed in the upper intestine. The absorption in the colon is approximately one half that of the small intestine. The optimal formulation would be designed to release approximately 40% of the stavudine in four hours and the remainder over the next twelve to twenty hours. A 100 mg. extended dosage form of stavudine, therefore, would be designed to have the same bioavailability as the commercial 40 mg. immediate release capsules given twice daily. […] A problem in the formulation of a suitable extended dosage form of stavudine is its sensitivity to moisture that causes it to hydrolyze, primarily into thymine. This moisture sensitivity has not been a problem with the commercial non-sustained release dosage form of stavudine because it is a dry granulation that is filled into hard gelatin capsules. However, sustained release dosage forms conventionally require different compounding procedures typically including a granulation step involving an aqueous medium. […] In accordance with the present invention, a method has been found whereby stavudine can be successfully compounded into an extended release formulation utilizing conventional techniques without appreciable loss of potency due to hydrolysis.

Cc1cn([C@H]2C=C[C@@H](CO)O2)c(=O)[nH]c1=O [stavudine, 3′-deoxy-2′,3′-didehydrothymidine]
absorption in the colon relative to that of the small intestine: approximately one half
absorption in the upper intestine: well absorbed
